Read-outs that look alike come from different tables or passages of the source.
What was measured:
CD73 [1] = molecular target: T1, CD73 (Homo sapiens, UniProt P21589); test: CD73 Biochemical IC50 Assay; conditions: final AMP 15 uM, final CD73 0.3 nM, 25 mM Tris pH 7.4, 5 mM MgCl2, no phosphate
T1 construct: purchased R&D system
T1 sequence (P21589 27-549): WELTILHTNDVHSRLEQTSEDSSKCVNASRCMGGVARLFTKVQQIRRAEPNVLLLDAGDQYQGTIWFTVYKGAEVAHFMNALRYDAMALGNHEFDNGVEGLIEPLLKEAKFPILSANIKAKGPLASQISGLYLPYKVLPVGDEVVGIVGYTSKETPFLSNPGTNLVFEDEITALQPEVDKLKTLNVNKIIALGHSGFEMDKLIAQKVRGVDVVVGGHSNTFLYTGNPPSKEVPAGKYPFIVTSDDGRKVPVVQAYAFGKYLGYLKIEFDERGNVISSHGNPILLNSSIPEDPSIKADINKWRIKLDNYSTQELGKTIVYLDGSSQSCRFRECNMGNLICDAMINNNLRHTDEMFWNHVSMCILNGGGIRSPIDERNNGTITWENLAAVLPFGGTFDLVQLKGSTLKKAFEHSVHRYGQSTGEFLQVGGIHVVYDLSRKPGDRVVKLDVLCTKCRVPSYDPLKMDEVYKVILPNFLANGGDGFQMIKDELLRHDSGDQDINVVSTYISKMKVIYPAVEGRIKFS
Experimental: CD73 Biochemical IC50 Assay
Compound serial dilutions were pre-spotted into Thermo Nunc assay plate. 50 μL CD73 enzyme buffer (CD73 purchased from R&D system=0.6 nM, 25 mM Tris, pH 7.4, 5 mM MgCl2) was added into the assay plate and incubated for 15 mins. […] The samples were run using Rapid fire.

[2] = molecular target: T2, CD73 activity in MDA-MB-231-GFP cells (Homo sapiens, UniProt P21589); test: MDA-MB-231 Cell Based CD73 Activity Assay; conditions: 10000 cells per well, RPMI medium with 10% human plasma, overnight compound treatment, AMP 200 μM
T2 construct: endogenous in cells; host or cells: MDA-MB-231-GFP cells
T2 sequence (P21589 27-549): T1 sequence (P21589 27-549)
Experimental: MDA-MB-231 Cell Based CD73 Activity Assay
MDA-MB-231-GFP cells were seeded in 384-well plates (Greiner 781946) at a density of 10000 cells per well in 50 μL of RPMI medium with 10% HP (human plasma). Cells were plated into assay plate with compounds pre-spotted, for an overnight compound treatment. 50 μL of 400 μM AMP (final concentration 200 μM) using a Bio-tek dispenser. Plates were incubated for 100 mins. […] The samples were run using Rapid fire.

CD73 [3] = molecular target: T1, CD73; format: biochemical; conditions: 1 mM NaH2PO4 in enzyme buffer, final AMP 15 uM, final CD73 0.3 nM

Row | Compound | IC50 (CD73 [1]) [nM] | EC50 [2] [nM] | IC50 (CD73 [3]) [nM]
1 | O=c1[nH]cc(-c2cc([C@@H]3C[C@H]3c3ccccc3F)c3nccn3n2)c(=O)[nH]1 (racemic) [Example 28, 5-(8-((1S,2S)-2-(2-fluorophenyl)cyclopropyl)imidazo[1,2-b]pyridazin-6-yl)pyrimidine-2,4(1H,3H)-dione and 5-(8-((1R,2R)-2-(2-fluorophenyl)cyclopropyl)imidazo[1,2-b]pyridazin-6-yl)pyrimidine-2,4(1H,3H)-dione] | 16.8 | 3.59 | –
2 | O=c1[nH]cc(-c2cc([C@H]3C[C@@H]3c3cccc(F)c3)c3nccn3n2)c(=O)[nH]1 (racemic) [Example 29, 5-(8-((1S,2S)-2-(3-fluorophenyl)cyclopropyl)imidazo[1,2-b]pyridazin-6-yl)pyrimidine-2,4(1H,3H)-dione and 5-(8-((1R,2R)-2-(3-fluorophenyl)cyclopropyl)imidazo[1,2-b]pyridazin-6-yl)pyrimidine-2,4(1H,3H)-dione] | 16.3 | 7.08 | –
3 | O=c1[nH]cc(-c2cc([C@@H]3C[C@H]3c3cccc(F)c3F)c3nccn3n2)c(=O)[nH]1 (racemic) [Example 32, 5-(8-((1S,2S)-2-(2,3-difluorophenyl)cyclopropyl)imidazo[1,2-b]pyridazin-6-yl)pyrimidine-2,4(1H,3H)-dione and 5-(8-((1R,2R)-2-(2,3-difluorophenyl)cyclopropyl)imidazo[1,2-b]pyridazin-6-yl)pyrimidine-2,4(1H,3H)-dione] | 18.6 | 6.84 | –
4 | O=c1[nH]cc(-c2cc([C@@H]3C[C@H]3c3ccc(F)c(F)c3F)c3nccn3n2)c(=O)[nH]1 (racemic) [Example 34, 5-(8-((1S,2S)-2-(2,3,4-trifluorophenyl)cyclopropyl)imidazo[1,2-b]pyridazin-6-yl)pyrimidine-2,4(1H,3H)-dione and 5-(8-((1R,2R)-2-(2,3,4-trifluorophenyl)cyclopropyl)imidazo[1,2-b]pyridazin-6-yl)pyrimidine-2,4(1H,3H)-dione] | 18.2 | 11.3 | –
5 | O=c1[nH]cc(-c2cc([C@@H]3C[C@H]3c3cc(F)c(F)c(F)c3)c3nccn3n2)c(=O)[nH]1 (racemic) [Example 36, 5-(8-((1S,2S)-2-(3,4,5-trifluorophenyl)cyclopropyl)imidazo[1,2-b]pyridazin-6-yl)pyrimidine-2,4(1H,3H)-dione and 5-(8-((1R,2R)-2-(3,4,5-trifluorophenyl)cyclopropyl)imidazo[1,2-b]pyridazin-6-yl)pyrimidine-2,4(1H,3H)-dione] | 24.2 | 6.51 | –
6 | O=c1[nH]cc(-c2cc([C@@H]3C[C@H]3c3cccc(Cl)c3)c3nccn3n2)c(=O)[nH]1 (racemic) [Example 38, 5-(8-((1S,2S)-2-(3-chlorophenyl)cyclopropyl)imidazo[1,2-b]pyridazin-6-yl)pyrimidine-2,4(1H,3H)-dione and 5-(8-((1R,2R)-2-(3-chlorophenyl)cyclopropyl)imidazo[1,2-b]pyridazin-6-yl)pyrimidine-2,4(1H,3H)-dione] | 14.3 | 7.29 | –
7 | O=c1[nH]cc(-c2cc([C@@H]3C[C@H]3c3ccc(OC(F)(F)F)cc3)c3nccn3n2)c(=O)[nH]1 (racemic) [Example 48, 5-(8-((2S,2S)-2-(4-(trifluoromethoxy)phenyl)cyclopropyl)imidazo[1,2-b]pyridazin-6-yl)pyrimidine-2,4(1H,3H)-dione and 5-(8-((1R,2R)-2-(4-(trifluoromethoxy)phenyl)cyclopropyl)imidazo[1,2-b]pyridazin-6-yl)pyrimidine-2,4(1H,3H)-dione] | 52.5 | – | 2.73
8 | N#Cc1cc([C@@H]2C[C@H]2c2cc(-c3c[nH]c(=O)[nH]c3=O)nn3ccnc23)ccc1F (racemic) [Example 64, 5-((2S,2S)-2-(6-(2,4-dioxo-1,2,3,4-tetrahydropyrimidin-5-yl)imidazo[1,2-b]pyridazin-8-yl)cyclopropyl)-2-fluorobenzonitrile and 54(1R,2R)-2-(6-(2,4-dioxo-1,2,3,4-tetrahydropyrimidin-5-yl)imidazo[1,2-b]pyridazin-8-yl)cyclopropyl)-2-fluorobenzonitrile] | 14.7 | – | 1.5
9 | O=c1[nH]cc(-c2cc([C@H]3C[C@@H]3c3ccccc3)c3ncc(F)n3n2)c(=O)[nH]1 (racemic) [Example 87, 5-[3-fluoro-8-[(1S,2S)-2-phenylcyclopropyl]imidazo[1,2-b]pyridazin-6-yl]-1H-pyrimidine-2,4-dione and 5-[3-fluoro-8-[(1R,2R)-2-phenylcyclopropyl]imidazo[1,2-b]pyridazin-6-yl]-1H-pyrimidine-2,4-dione] | 15.7 | 3.24 | –
10 | O=c1[nH]cc(-c2cc([C@H]3C[C@@H]3c3ccccc3)c3nccn3n2)c(=O)[nH]1 (racemic) [Example 104, 5-(8-((2S,2S)-2-phenylcyclopropyl)imidazo[1,2-b]pyridazin-6-yl)pyrimidine-2,4-(1H,3H)-dione and 5-(8-((1R,2R)-2-phenylcyclopropyl)imidazo[1,2-b]pyridazin-6-yl)pyrimidine-2,4-(1H,3H)-dione] | 196 | 23.2 | –
11 | O=c1[nH]cc(-c2cc([C@@H]3C[C@H]3C3CC(F)(F)C3)c3nccn3n2)c(=O)[nH]1 (racemic) [Example 106, 5-(8-((1S,2R)-2-(3,3-difluorocyclobutyl)cyclopropyl)imidazo[1,2-b]pyridazin-6-yl)pyrimidine-2,4(1H,3H)-dione and 5-(8-((1R,2S)-2-(3,3-difluorocyclobutyl)cyclopropyl)imidazo[1,2-b]pyridazin-6-yl)pyrimidine-2,4(1H,3H)-dione] | 105 | – | –
12 | O=c1[nH]cc(-c2cc([C@@H]3C[C@H]3C(F)(F)F)c3nccn3n2)c(=O)[nH]1 (racemic) [Example 107, 5-(8-((2S,2S)-2-(trifluoromethyl)cyclopropyl)imidazo[1,2-b]pyridazin-6-yl)pyrimidine-2,4(1H,3H)-dione and 5-(8-((1R,2R)-2-(trifluoromethyl)cyclopropyl)imidazo[1,2-b]pyridazin-6-yl)pyrimidine-2,4(1H,3H)-dione] | 46.8 | – | –
13 | O=c1[nH]cc(-c2cc([C@@H]3C[C@@]3(F)c3ccccc3)c3nccn3n2)c(=O)[nH]1 (racemic) [Example 108, 5-(8-((1R,2R)-2-fluoro-2-phenylcyclopropyl)imidazo[1,2-b]pyridazin-6-yl)pyrimidine-2,4(1H,3H)-dione and 5-(8-((1S,2S)-2-fluoro-2-phenylcyclopropyl)imidazo[1,2-b]pyridazin-6-yl)pyrimidine-2,4(1H,3H)-dione] | 35 | – | –
14 | N#Cc1ccccc1[C@H]1C[C@@H]1c1cc(-c2c[nH]c(=O)[nH]c2=O)nn2ccnc12 [Example 49, 2-((1S,2S)-2-(6-(2,4-dioxo-1,2,3,4-tetrahydropyrimidin-5-yl)imidazo[1,2-b]pyridazin-8-yl)cyclopropyl)benzonitrile] | 17.5 | 19 | –
15 | O=c1[nH]cc(-c2cc(N3C[C@@H](F)[C@@H](F)C3)c3nccn3n2)c(=O)[nH]1 [Example 77, 5-[8-[(3S,4R)-3,4-difluoropyrrolidin-1-yl]imidazo[1,2-b]pyridazin-6-yl]-1H-pyrimidine-2,4-dione and 5-[8-[(3R,4S)-3,4-difluoropyrrolidin-1-yl]imidazo[1,2-b]pyridazin-6-yl]-1H-pyrimidine-2,4-dione] | 22.6 | – | 3.5
16 | COc1ccc([C@H]2C[C@@H]2c2cc(-c3c[nH]c(=O)[nH]c3=O)nn3ccnc23)cc1 [Example 112, 5-(8-((1S,2S)-2-(4-methoxyphenyl)cyclopropyl)imidazo[1,2-b]pyridazin-6-yl)pyrimidine-2,4(1H,3H)-dione] | 20.5 | 2.23 | –
17 | COC(=O)c1ccccc1[C@H]1C[C@@H]1c1cc(-c2c[nH]c(=O)[nH]c2=O)nn2ccnc12 [Example 113, methyl 2-((1S,2S)-2-(6-(2,4-dioxo-1,2,3,4-tetrahydropyrimidin-5-yl)imidazo[1,2-b]pyridazin-8-yl)cyclopropyl)benzoate] | 147 | 210 | –
18 | COc1cccc([C@H]2C[C@@H]2c2cc(-c3c[nH]c(=O)[nH]c3=O)nn3ccnc23)c1 [Example 114, 5-(8-((1S,2S)-2-(3-methoxyphenyl)cyclopropyl)imidazo[1,2-b]pyridazin-6-yl)pyrimidine-2,4(1H,3H)-dione] | 31.1 | 5.38 | –

Reference: patent US12110294B2, “CD73 compounds” (Gilead Sciences, Inc., priority 2020, dated 2024)
